According to patent US8785404B2, “Urea compounds” (Eli Lilly and Company, priority 2012, dated 2014):

Experiments:
[1] = biological target: T1, human SGLT1 (Homo sapiens, UniProt P13866); test: 14C-AMG uptake assay, human SGLT1 in CHO-K1 cells; format: cell-based
T1 sequence (P13866 1-664): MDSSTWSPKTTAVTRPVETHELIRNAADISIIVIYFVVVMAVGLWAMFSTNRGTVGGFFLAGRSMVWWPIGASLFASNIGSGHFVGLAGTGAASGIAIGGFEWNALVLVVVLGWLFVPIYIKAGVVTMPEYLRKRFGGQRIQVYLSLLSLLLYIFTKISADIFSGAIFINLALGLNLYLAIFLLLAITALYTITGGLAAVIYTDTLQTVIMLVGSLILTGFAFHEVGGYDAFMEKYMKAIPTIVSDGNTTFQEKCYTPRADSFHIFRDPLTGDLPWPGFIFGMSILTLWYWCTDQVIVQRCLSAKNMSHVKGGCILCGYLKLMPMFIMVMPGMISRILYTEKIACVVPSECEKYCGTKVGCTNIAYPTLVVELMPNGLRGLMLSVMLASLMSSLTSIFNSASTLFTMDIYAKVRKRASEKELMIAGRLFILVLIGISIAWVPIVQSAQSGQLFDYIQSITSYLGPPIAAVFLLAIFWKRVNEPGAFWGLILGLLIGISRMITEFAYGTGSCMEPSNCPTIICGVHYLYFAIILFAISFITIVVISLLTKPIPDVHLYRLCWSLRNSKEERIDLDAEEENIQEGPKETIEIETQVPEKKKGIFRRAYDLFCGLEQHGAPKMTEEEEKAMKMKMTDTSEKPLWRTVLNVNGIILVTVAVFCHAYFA
Source text: (§1) The cDNA encoding human SGLT1 (slc5a1, NM_000343), human SGLT2 (slc5a2, NM_003041) and mouse SGLT1 (slc5a1, NM_019810.4) are purchased from Openbiosystems, Invitrogen and Openbiosystems, respectively. The cDNA is cloned into pcDNA3.1+ for mammalian expression and is stably transfected into Chinese hamster ovary (CHO)-K1 cells using standard mammalian transfection procedures. An SGLT-expressing sub-clone of each over-expressing cell line is selected based on resistance to neomycin (Geneticin, Invitrogen) and activity in the ^14C-α-methyl-D-glucopyranoside (^14C-AMG) uptake assay (see below). Stable SGLT-expressing cells are maintained using standard cell culture techniques.
(§2) The SGLT activity is measured as sodium-dependent ^14C-AMG uptake in the above cell lines described as follows. One hundred μL of culture medium containing 30,000 cells are seeded to each well of a 96-well BioCoat poly-D-lysine plate (Becton Dickson) and cultured at 37° C. overnight. The culture medium is aspirated and cells are washed twice with 200 μL of Reaction Buffer (140 mM NaCl, 2 mM KCl, 1 mM CaCl2, MgCl2, and 14 mM N-2-hydroethylpiperrazine-N′-2-ethanesulfonic acid (Hepes), pH 7.5). The excess buffer is tapped out onto paper towels. Thirty-five μL of Reaction Buffer are added to each well. […] After mixing, the scintillation signal in the plate is counted in a MicroBeta (PerkinElmer). […]

[2] = biological target: T2, human SGLT2 (Homo sapiens, UniProt P31639); test: 14C-AMG uptake assay, human SGLT2 in CHO-K1 cells; format: cell-based; settings: sodium-dependent 14C-AMG uptake, n = 5
T2 sequence (P31639 1-672): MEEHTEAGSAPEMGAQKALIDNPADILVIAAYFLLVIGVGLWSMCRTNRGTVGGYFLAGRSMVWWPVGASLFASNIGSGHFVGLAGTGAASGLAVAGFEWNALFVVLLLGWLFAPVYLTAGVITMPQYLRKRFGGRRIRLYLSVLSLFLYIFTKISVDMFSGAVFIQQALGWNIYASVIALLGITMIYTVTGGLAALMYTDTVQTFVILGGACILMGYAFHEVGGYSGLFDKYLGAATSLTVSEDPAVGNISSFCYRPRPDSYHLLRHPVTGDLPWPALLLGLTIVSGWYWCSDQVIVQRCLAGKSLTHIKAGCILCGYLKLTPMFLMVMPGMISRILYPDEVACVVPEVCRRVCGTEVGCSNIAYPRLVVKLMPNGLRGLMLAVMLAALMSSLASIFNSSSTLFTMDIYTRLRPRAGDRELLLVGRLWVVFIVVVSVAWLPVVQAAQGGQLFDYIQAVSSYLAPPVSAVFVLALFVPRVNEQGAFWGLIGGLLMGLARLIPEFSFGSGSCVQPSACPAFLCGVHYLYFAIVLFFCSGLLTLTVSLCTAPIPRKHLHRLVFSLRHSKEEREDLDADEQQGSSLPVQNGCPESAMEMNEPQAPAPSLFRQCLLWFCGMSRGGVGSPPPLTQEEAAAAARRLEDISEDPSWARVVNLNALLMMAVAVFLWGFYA
Source text: as §1, §2

[3] = biological target: T3, mouse SGLT1 (Mus musculus, UniProt Q8C3K6); test: 14C-AMG uptake assay, mouse SGLT1 in CHO-K1 cells; format: cell-based; settings: sodium-dependent 14C-AMG uptake, n = 5
T3 sequence (Q8C3K6 1-665): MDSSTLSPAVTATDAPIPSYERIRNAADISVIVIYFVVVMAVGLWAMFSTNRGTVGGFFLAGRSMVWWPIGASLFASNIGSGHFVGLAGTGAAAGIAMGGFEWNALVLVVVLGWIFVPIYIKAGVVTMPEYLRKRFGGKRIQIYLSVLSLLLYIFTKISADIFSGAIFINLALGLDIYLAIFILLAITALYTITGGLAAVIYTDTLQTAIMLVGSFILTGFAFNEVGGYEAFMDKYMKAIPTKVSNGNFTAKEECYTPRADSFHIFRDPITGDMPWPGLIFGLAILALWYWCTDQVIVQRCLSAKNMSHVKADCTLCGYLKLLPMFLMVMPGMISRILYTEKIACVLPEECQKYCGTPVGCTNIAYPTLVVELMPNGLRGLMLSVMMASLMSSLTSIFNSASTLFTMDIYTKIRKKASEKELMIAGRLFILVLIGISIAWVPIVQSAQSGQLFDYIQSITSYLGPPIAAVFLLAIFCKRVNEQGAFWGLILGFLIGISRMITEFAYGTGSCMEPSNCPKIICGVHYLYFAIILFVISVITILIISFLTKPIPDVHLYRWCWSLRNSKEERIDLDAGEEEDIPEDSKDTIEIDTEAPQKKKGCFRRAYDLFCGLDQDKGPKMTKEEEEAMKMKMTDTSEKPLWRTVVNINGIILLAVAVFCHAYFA
Source text: as §1, §2

[4] = tested on: C57Bl/6 mice; test: Glucose lowering effects in oral glucose tolerance test (OGTT); format: in vivo, mouse; settings: for Glucose, 20 Minute / Glucose, 40 Minute / Glucose, 60 Minute / Glucose, 120 Minute / Glucose, 0 Minute / Baseline Adjusted AUC (glucose) / Glucose Cmax / Glucose Tmax: 10 mg/kg oral, mean ± SE; for Glucose, 20 Minute: 20 min after dextrose 3 g/kg; for Glucose, 40 Minute: 40 min after dextrose 3 g/kg; for Glucose, 60 Minute: 60 min after dextrose 3 g/kg; for Glucose, 120 Minute: 120 min after dextrose 3 g/kg; for Glucose, 0 Minute: baseline before dextrose 3 g/kg
Procedure: The test compound is formulated by adding a vehicle of 1% hydroxyethylcellulose, 0.25% Tween® 80 w/antifoam 0.05% to preweighed test compound to make a 1 mg/ml solution. The mixture is probe sonicated for approximately 1 minute. A stir bar is added, and the resulting suspension is stirred continuously throughout dosing.
Single housed C57Bl/6 mice are weighed and body weights used to determine study groups (n=5), within a working range of 26-30 g. After grouping, all mice are fasted overnight by removing access to food, late afternoon before test day. At the same time, two groups of mice are orally gavaged with 10 ml/kg test compound preparation or vehicle. Animals are dosed thirty seconds apart. […] The following morning, the remaining mice are weighed and orally gavaged using the same protocol as the previous day.
At five, eight and eighteen hours after each respective compound treatment is started, a baseline blood sample is taken for measuring glucose (from the first animal, via tail snip). The animal is then immediately given an oral dose of 50% dextrose (Hospira®) at 3 g/kg. Blood samples are taken for glucose, exactly thirty seconds apart, by tail vein so that blood is collected in each animal at 20, 40, 60 and 120 minutes after the dextrose dose.

Cc1cc(/C=C/CCN2CCCC3(CCN(C(=O)CNC(=O)NCC(C)C)CC3)C2)ccc1Cc1c(O[C@@H]2O[C@H](CO)[C@@H](O)[C@H](O)[C@H]2O)n[nH]c1C(C)C [Example 1, 1-(2-{2-[(3E)-4-(4-{[3-(beta-D-glucopyranosyloxy)-5-(propan-2-yl)-1H-pyrazol-4-yl]methyl}-3-methylphenyl)but-3-en-1-yl]-2,9-diazaspiro[5.5]undec-9-yl}-2-oxoethyl)-3-(2-methylpropyl)urea] was tested. Which “Potency at SGLT1 relative to human SGLT2 (in words)” value ([1]; in vitro, human and mouse SGLT1 vs human SGLT2) did it give?
The value was “more potent at human and mouse SGLT1 than at human SGLT2”.

And the IC50 ([1]; sodium-dependent 14C-AMG uptake, CHO-K1 cells, n = 5)?
Its IC50 is 17.3 ± 16.2 nM.

What about the IC50 [2] of the same molecule?
Its IC50 is 171 ± 26 nM.

What about the IC50 [3] of the same molecule?
The IC50 was 7.3 ± 2.9 nM.

What about the “Glucose, 20 Minute” value ([4]; OGTT @ 5 hr post dose) of the same molecule?
The value was 124.7 ± 7.66 mg/dL.

What about the “Glucose, 40 Minute” value ([4]; OGTT @ 5 hr post dose) of the same molecule?
Its value is 139.2 ± 7.69 mg/dL.

And the “Glucose, 60 Minute” value ([4]; OGTT @ 5 hr post dose)?
The value was 133.2 ± 6.24 mg/dL.

What about the “Glucose, 120 Minute” value ([4]; OGTT @ 5 hr post dose) of the same molecule?
Its value is 108.7 ± 4.93 mg/dL.

What about the “Glucose, 0 Minute” value ([4]; OGTT @ 5 hr post dose) of the same molecule?
Its value is 75.9 ± 3.21 mg/dL.

And the “Baseline Adjusted AUC (glucose)” value ([4]; OGTT @ 5 hr post dose)?
Its value is 2815 ± 194 mg/dL.

What about the “Glucose Cmax” value ([4]; OGTT @ 5 hr post dose) of the same molecule?
The value was 140.2 ± 7.48 mg/dL.

What about the “Glucose Tmax” value ([4]; OGTT @ 5 hr post dose) of the same molecule?
The value was 56 ± 16 min.

And the “Glucose, 20 Minute” value ([4]; OGTT @ 8 hrs post dose)?
Its value is 142.4 ± 7.4 mg/dL.

And the “Glucose, 40 Minute” value ([4]; OGTT @ 8 hrs post dose)?
The value was 168.1 ± 8.37 mg/dL.

What about the “Glucose, 60 Minute” value ([4]; OGTT @ 8 hrs post dose) of the same molecule?
The value was 171.2 ± 10.1 mg/dL.

What about the “Glucose, 120 Minute” value ([4]; OGTT @ 8 hrs post dose) of the same molecule?
Its value is 113.6 ± 4.25 mg/dL.

And the “Glucose, 0 Minute” value ([4]; OGTT @ 8 hrs post dose)?
The value was 75.5 ± 4.42 mg/dL.

What about the “Baseline Adjusted AUC (glucose)” value ([4]; OGTT @ 8 hrs post dose) of the same molecule?
Its value is 4147 ± 456 mg/dL.

And the “Glucose Cmax” value ([4]; OGTT @ 8 hrs post dose)?
The value was 175.1 ± 9.3 mg/dL.

And the “Glucose Tmax” value ([4]; OGTT @ 8 hrs post dose)?
Its value is 52 ± 4.9 min.

What about the “Glucose, 20 Minute” value ([4]; OGTT @ 18 hrs post dose) of the same molecule?
The value was 196.0 ± 16.6 mg/dL.

And the “Glucose, 40 Minute” value ([4]; OGTT @ 18 hrs post dose)?
Its value is 216.1 ± 15.0 mg/dL.

And the “Glucose, 60 Minute” value ([4]; OGTT @ 18 hrs post dose)?
Its value is 188.7 ± 13.8 mg/dL.

What about the “Glucose, 120 Minute” value ([4]; OGTT @ 18 hrs post dose) of the same molecule?
Its value is 110.3 ± 5.74 mg/dL.

What about the “Glucose, 0 Minute” value ([4]; OGTT @ 18 hrs post dose) of the same molecule?
Its value is 78.7 ± 8.81 mg/dL.

And the “Baseline Adjusted AUC (glucose)” value ([4]; OGTT @ 18 hrs post dose)?
Its value is 6194 ± 406 mg/dL.

And the “Glucose Cmax” value ([4]; OGTT @ 18 hrs post dose)?
The value was 216.1 ± 15.0 mg/dL.

What about the “Glucose Tmax” value ([4]; OGTT @ 18 hrs post dose) of the same molecule?
Its value is 44 ± 4.0 min.

And the “Average maximum concentration of plasma glucose (Cmax) (in words)” value ([4]; during all three OGTTs)?
Its value is “decreases”.

And the “Average time for glucose to reach maximum concentration (Tmax) (in words)” value ([4]; during all three OGTTs)?
The value was “increasing”.

And the “Baseline adjusted glucose AUC (in words)” value ([4]; during all three OGTTs)?
Its value is “dose dependent decrease”.

And the “Glucose excursion after oral bolus of 50% dextrose (in words)” value ([4]; normal glycemic C57Bl/6 mouse, five, eight or eighteen hours after administration)?
The value was “decrease in the glucose excursion”.
